In EP0563281B1, “METHOD FOR PROCESSING ELECTRICALLY CONDUCTIVE POLYANILINES IN LEWIS-BASE SOLVENTS” (MONSANTO COMPANY, priority 1990, dated 1992):
Where two headings read alike, the source gives them in different places.

Assays:
[1] = cited from earlier work; for m: dipole moment; for mp: dipole moment of non-solvent
[2] = Hansen's method for solubility parameters and interaction distance r relative to polyaniline base; details: for r: Table 5, interaction distance to polyaniline base (17.4, 8.5, 10.4)
Excerpt: When multiple literature source were found with widely differing values, those sets of values were taken which were the closest to those theoretically predicted for the given solvent.

[3] = cited from earlier work
[4] = Solvent test with undoped (neutralized) polyaniline (Example 8); format: physicochemical; details: polyaniline synthesized as in Example 1, undoped with aqueous sodium carbonate
Experimental: A series of potential solvents with significant polar and hydrogen bonding contributions were tested with polyaniline which had been synthesized as in Example 1 and then undoped (neutralized) by treatment with an aqueous solution of sodium carbonate.

[5] = Table 5, Hansen parameter of the liquid
[6] = Table 4, Hildebrand (solubility) parameter
[7] = Table 6, second half, Hansen parameter of non-solvent
[8] = Table 6, Hansen parameter of non-solvent
[9] = Table 6, Hildebrand parameter of non-solvent
[10] = Table 4, dielectric constant relative to permittivity of free space
[11] = Table 4, relative sound velocity in paper wetted by the solvent (water = 100), hydrogen bonding capability

SMILES	dd [3, 5] [MPa]	dh [3, 5] [MPa]	dp [3, 5] [MPa]	d [1, 6] [MPa]	m ([1]; Table 4)	e [1, 10]	further results
CN(C)N [1,1-dimethylhydrazine]	–	–	–	–	–	–	d ([1]; Table 7, Hildebrand Parameter): 19.8 MPa
Cc1ccccn1 [2-picoline]	–	–	–	–	–	–	e ([1]; Table 7, Dielectric Constant): 9.8; d ([1]; Table 7, Hildebrand Parameter): 20.9 MPa
O=C1CCCN1 [2-pyrrolidone]	19.4	11.3	17.4	28.4	7.7 10^-30 Cm	–	r [2]: 99.8; d ([1]; Table 7, Hildebrand Parameter): 28.4 MPa
CCCCc1ccc(N)cc1 [4-Butylaniline]	–	–	–	–	–	–	dh [3, 7]: 6.6 MPa; dp [3, 7]: 9.1 MPa; dd [3, 8]: 16.9 MPa; d [1, 9]: 20.4 MPa
CN(C)C=O [Dimethylformamide]	17.4	11.3	13.7	–	11.2 10^-30 Cm	37.0	gw [1, 11]: 68.0
CNNC [Dimethylhydrazine]	15.3	11.0	5.9	19.8	–	–	r [2]: 5.0
CCNc1ccccc1 [N-Ethylaniline]	–	–	–	–	–	–	dh [3, 7]: 7.7 MPa; dp [3, 7]: 10.5 MPa; dd [3, 8]: 17.1 MPa; d [1, 9]: 21.5 MPa
CN1CCCC1=O [N-methyl-2-pyrrolidone]	16.5	13.5	10.4	23.7	–	32.0	solvent for undoped polyaniline [4]: solvent
Cc1ccccn1 [Picoline]	18.2	6.8	7.8	20.9	6.3 10^-30 Cm	9.8	r [2]: 4.0
Nc1ccccc1 [aniline]	19.4	10.0	5.1	22.6	5.0 10^-30 Cm	6.9	r [2]: 5.3; gw [1, 11]: 94.0
NCc1ccccc1 [benzylamine]	–	–	–	–	–	–	pKa ([1]; Table 7): 9.3
CCCCN [butylamine]	13.6	8.0	8.1	18.6	4.7 10^-30 Cm	5.3	e ([1]; Table 7, Dielectric Constant): 5.3; d ([1]; Table 7, Hildebrand Parameter): 17.7 MPa; pKa ([1]; Table 7): 10.8
CC(C)NC(C)C [diisopropylamine]	–	–	–	–	–	–	predicted interaction distance (r) ([2]; Table 6, second half, Hansen Method): 11.3; dh [3, 7]: 2.0 MPa; dp [3, 7]: 6.2 MPa; dd [3, 8]: 13.8 MPa; d [1, 9]: 15.2 MPa
CCCNCCC [dipropylamine]	–	–	–	–	–	–	dh [3, 7]: 5.8 MPa; dp [3, 7]: 6.2 MPa; dd [3, 8]: 14.0 MPa; d [1, 9]: 16.3 MPa
NCCN [ethylenediamine]	16.6	17.0	8.8	–	6.6 10^-30 Cm	12.9	e ([1]; Table 7, Dielectric Constant): 12.9; pKa ([1]; Table 7): 10.1
CN(C)P(=O)(N(C)C)N(C)C [hexamethylphosporamide]	18.3	11.3	8.6	23.2	17.6 10^-30 Cm	30.0	r [2]: 2.0; e ([1]; Table 7, Dielectric Constant): 30.0; d ([1]; Table 7, Hildebrand Parameter): 23.2 MPa
c1c[nH]cn1 [imidazole]	–	–	–	–	–	–	pKa ([1]; Table 7): 7.1
C1COCCN1 [morpholine]	16.0	10.1	11.4	22.1	5.0 10^-30 Cm	7.3	r [2]: 4.0; gw [1, 11]: 200.0; e ([1]; Table 7, Dielectric Constant): 7.3; d ([1]; Table 7, Hildebrand Parameter): 22.1 MPa; gw ([1]; Table 7, Hydrogen Bonding): 200.0
C1CCNCC1 [piperidine]	–	–	–	–	–	–	e ([1]; Table 7, Dielectric Constant): 5.8; d ([1]; Table 7, Hildebrand Parameter): 19.3 MPa; gw ([1]; Table 7, Hydrogen Bonding): 89.0
CCCN [propylamine]	13.9	7.2	9.3	–	4.7 10^-30 Cm	5.3	e ([1]; Table 7, Dielectric Constant): 5.3; pKa ([1]; Table 7): 10.8
c1ccncc1 [pyridine]	17.6	7.7	10.1	–	7.3 10^-30 Cm	12.3	gw [1, 11]: 80.0
C1CCNC1 [pyrrolidine]	–	–	–	–	5.3 10^-30 Cm	–	–
c1ccc2ncccc2c1 [quinoline]	19.4	7.6	7.0	22.0	7.6 10^-30 Cm	9.0	–
CCCCN(CCCC)CCCC [tributylamine]	–	–	–	–	–	–	dh [3, 7]: 4.0 MPa; dp [3, 7]: 2.8 MPa; dd [3, 8]: 15.1 MPa; d [1, 9]: 15.9 MPa; mp ([1]; Table 6): 2.3 10^-30 Cm
CCN(CC)CC [triethylamine]	–	–	–	–	–	–	dh [3, 7]: 1.9 MPa; dp [3, 7]: 3.7 MPa; dd [3, 8]: 14.6 MPa; d [1, 9]: 15.3 MPa; mp ([1]; Table 6): 2.2 10^-30 Cm
